# From patent US8952024B2, “Herbicidal pyrimidone derivatives” (E I du Pont de Nemours and Company, priority 2009, dated 2015)
# Experiments:
# Assay type in all cases: in vivo
# [1] = test system: ducksalad (Heteranthera limosa); assay: Test B flooded paddy test; conditions: for Plant response rating, Flood, Ducksalad: 250 g ai/ha, flooded paddy test, visual rating on 0 to 100 scale (0 no effect, 100 complete control) after 13 to 15 days; for Plant response rating, Ducksalad: Flood (flooded paddy test), 13 to 15 days
# Procedure, shortened: (§1)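 Seedlings reaching 2 leaves are flooded 3 cm deep; test material is delivered to that water, which stays at the same depth. Plants remain in a greenhouse 13–15 days and are then scored by eye versus controls from 0 to 100.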
# [2] = test system: barnyardgrass (Echinochloa crus-galli); assay: Test B flooded paddy test; conditions: for Plant response rating, Flood, Barnyardgrass: 250 g ai/ha, flooded paddy test, visual rating on 0 to 100 scale (0 no effect, 100 complete control) after 13 to 15 days; for Plant response rating, Barnyardgrass: Flood (flooded paddy test), 13 to 15 days
# Procedure, shortened: as §1
# rice (Oryza sativa) = assay: Test B flooded paddy test; conditions: for Plant response rating, Flood, Rice: 250 g ai/ha, flooded paddy test, visual rating on 0 to 100 scale (0 no effect, 100 complete control) after 13 to 15 days; for Plant response rating, Rice: Flood (flooded paddy test), 13 to 15 days
# Procedure, shortened: as §1
# [3] = test system: umbrella sedge (Cyperus difformis); assay: Test B flooded paddy test; conditions: for Plant response rating, Flood, Sedge, Umbrella: 250 g ai/ha, flooded paddy test, visual rating on 0 to 100 scale (0 no effect, 100 complete control) after 13 to 15 days; for Plant response rating, Sedge, Umbrella: Flood (flooded paddy test), 13 to 15 days
# Procedure, shortened: as §1
# [4] = test system: cocklebur (Xanthium strumarium); assay: Test B pre-/postemergence plant response; conditions: for Cocklebur plant response rating (0 to 100 scale): 62 g ai/ha, 0 is no effect, 13 to 15 days
# Procedure, shortened: (§2)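 Visual injury, 0–100 scale (100 = complete control), rated against controls after 13 to 15 days in greenhouse. Pre-emergence: seeds in loam/sand soil, treated at planting. Post-emergence: 1- to 4-leaf plants (2 to 18 cm) in peat/vermiculite medium. Compounds formulated in non-phytotoxic solvent with surfactant.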
# [5] = test system: lambsquarters (Chenopodium album); assay: Test B pre-/postemergence plant response; conditions: for Lambsquarters plant response rating (0 to 100 scale): 62 g ai/ha, 0 is no effect, 13 to 15 days
# Procedure, shortened: as §2
# kochia (Kochia scoparia) = assay: Test B pre-/postemergence plant response; conditions: for Kochia plant response rating (0 to 100 scale): 62 g ai/ha, 0 is no effect, 13 to 15 days
# Procedure, shortened: as §2
# soybean (Glycine max) = assay: Test B pre-/postemergence plant response; conditions: for Soybean plant response rating (0 to 100 scale): 62 g ai/ha, postemergence, 0 is no effect, 100 is complete control, 13 to 15 days; for Plant response rating, Soybean: Postemergence
# Procedure, shortened: as §2
# [6] = test system: ragweed (common ragweed, Ambrosia elatior); assay: Test B pre-/postemergence plant response; conditions: for Ragweed plant response rating (0 to 100 scale): 62 g ai/ha, postemergence, 0 is no effect, 100 is complete control, 13 to 15 days; for Plant response rating, Ragweed: Postemergence
# Procedure, shortened: as §2
# [7] = test system: giant foxtail (Setaria faberii); assay: Test B pre-/postemergence plant response; conditions: for Foxtail, Giant plant response rating (0 to 100 scale): 62 g ai/ha, 0 is no effect, 13 to 15 days
# Procedure, shortened: as §2
# [8] = test system: green foxtail (Setaria viridis); assay: Test B pre-/postemergence plant response; conditions: for Foxtail, Green plant response rating (0 to 100 scale): 62 g ai/ha, 0 is no effect, 13 to 15 days
# Procedure, shortened: as §2
# [9] = test system: johnsongrass (Sorghum halepense); assay: Test B pre-/postemergence plant response; conditions: for Johnsongrass plant response rating (0 to 100 scale): 62 g ai/ha, 0 is no effect, 13 to 15 days
# Procedure, shortened: as §2
# [10] = test system: pigweed (Amaranthus retroflexus); assay: Test B pre-/postemergence plant response; conditions: for Pigweed plant response rating (0 to 100 scale): 62 g ai/ha, 0 is no effect, 13 to 15 days
# Procedure, shortened: as §2
# corn (Zea mays) = assay: Test B pre-/postemergence plant response; conditions: for Corn plant response rating (0 to 100 scale): 62 g ai/ha, 0 is no effect, 13 to 15 days
# Procedure, shortened: as §2
# [11] = test system: bermudagrass (Cynodon dactylon); assay: Test B pre-/postemergence plant response; conditions: for Bermudagrass plant response rating (0 to 100 scale): 62 g ai/ha, 0 is no effect, 13 to 15 days
# Procedure, shortened: as §2
# wild oat (Avena fatua) = assay: Test B pre-/postemergence plant response; conditions: for Oat, Wild plant response rating (0 to 100 scale): 62 g ai/ha, 0 is no effect, 13 to 15 days
# Procedure, shortened: as §2
# [12] = 62 g ai/ha, scale of 0 to 100 where 0 is no effect and 100 is complete control
# [13] = 125 g ai/ha, scale 0 to 100, 0 is no effect, 100 is complete control
# [14] = Flood, 31 g ai/ha, scale 0 to 100 (0 no effect, 100 complete control)
# [15] = 31 g ai/ha, postemergence, scale 0 to 100, 0 is no effect, 100 is complete control
# [16] = postemergence, 100 is complete control
# [17] = Postemergence, 125 g ai/ha, scale 0 to 100 (0 no effect, 100 complete control)
# [18] = Postemergence, 250 g ai/ha, scale 0 to 100 (0 no effect, 100 complete control)
# [19] = 125 g ai/ha, scale 0 to 100 (0 no effect, 100 complete control)
# [20] = 250 g ai/ha, scale 0 to 100 (0 no effect, 100 complete control)
# [21] = 16 g ai/ha, Postemergence, 0 to 100 scale
# [22] = Postemergence, 31 g ai/ha, 0 to 100 scale (0 no effect, 100 complete control)
# [23] = 31 g ai/ha, 0 to 100 scale (0 no effect, 100 complete control)
smiles,measurement,setting,value
COCCn1c(-c2cccs2)ncc(C(=O)C2=C(O)CCCC2=O)c1=O [Compound 108],"Plant response rating, Flood, Ducksalad",[1],70
same,"Plant response rating, Ducksalad",[1]; [12],50
same,"Plant response rating, Ducksalad",[1]; [13],60
same,Ducksalad plant response rating,[1]; [14],40
same,"Plant response rating, Flood, Barnyardgrass",[2],30
same,"Plant response rating, Barnyardgrass",[2]; [12],0
same,"Plant response rating, Barnyardgrass",[2]; [13],15
same,Barnyardgrass plant response rating,[2]; [14],0
same,"Plant response rating, Flood, Rice",rice (Oryza sativa),10
same,"Plant response rating, Rice",rice (Oryza sativa); [12],0
same,"Plant response rating, Rice",rice (Oryza sativa); [13],0
same,Rice plant response rating,rice (Oryza sativa); [14],0
same,"Plant response rating, Flood, Sedge, Umbrella",[3],95
same,"Plant response rating, Sedge, Umbrella",[3]; [12],40
same,"Plant response rating, Sedge, Umbrella",[3]; [13],60
same,"Sedge, Umbrella plant response rating",[3]; [14],0
same,"Plant response rating, Cocklebur",[4]; [15],75
same,Cocklebur plant response rating (0 to 100 scale),[4]; [16],95
same,"Plant response rating, Cocklebur",[4]; [17],100
same,"Plant response rating, Cocklebur",[4]; [18],100
same,"Plant response rating, Lambsquarters",[5]; [15],98
same,Lambsquarters plant response rating (0 to 100 scale),[5]; [16],98
same,"Plant response rating, Lambsquarters",[5]; [17],100
same,"Plant response rating, Lambsquarters",[5]; [18],100
same,"Plant response rating, Kochia",kochia (Kochia scoparia); [15],70
same,Kochia plant response rating (0 to 100 scale),kochia (Kochia scoparia); [16],95
same,"Plant response rating, Kochia",kochia (Kochia scoparia); [17],98
same,"Plant response rating, Kochia",kochia (Kochia scoparia); [18],100
same,Soybean plant response rating (0 to 100 scale),soybean (Glycine max),55
same,"Plant response rating, Soybean",soybean (Glycine max); [19],65
same,"Plant response rating, Soybean",soybean (Glycine max); [20],85
same,Ragweed plant response rating (0 to 100 scale),[6],85
same,"Plant response rating, Ragweed",[6]; [19],95
same,"Plant response rating, Ragweed",[6]; [20],98
same,"Plant response rating, Foxtail, Giant",[7]; [15],45
same,"Foxtail, Giant plant response rating (0 to 100 scale)",[7]; [16],60
same,"Plant response rating, Foxtail, Giant",[7]; [17],75
same,"Plant response rating, Foxtail, Giant",[7]; [18],80
same,"Plant response rating, Foxtail, Green",[8]; [15],5
same,"Foxtail, Green plant response rating (0 to 100 scale)",[8]; [16],30
same,"Plant response rating, Foxtail, Green",[8]; [17],80
same,"Plant response rating, Foxtail, Green",[8]; [18],80
same,"Plant response rating, Johnsongrass",[9]; [15],10
same,Johnsongrass plant response rating (0 to 100 scale),[9]; [16],20
same,"Plant response rating, Johnsongrass",[9]; [17],20
same,"Plant response rating, Johnsongrass",[9]; [18],60
same,"Plant response rating, Pigweed",[10]; [15],95
same,Pigweed plant response rating (0 to 100 scale),[10]; [16],98
same,"Plant response rating, Pigweed",[10]; [17],100
same,"Plant response rating, Pigweed",[10]; [18],100
same,"Plant response rating, Corn",corn (Zea mays); [15],15
same,Corn plant response rating (0 to 100 scale),corn (Zea mays); [16],35
same,"Plant response rating, Corn",corn (Zea mays); [17],50
same,"Plant response rating, Corn",corn (Zea mays); [18],65
same,"Plant response rating, Bermudagrass",[11]; [15],85
same,Bermudagrass plant response rating (0 to 100 scale),[11]; [16],90
same,"Plant response rating, Bermudagrass",[11]; [17],100
same,"Plant response rating, Bermudagrass",[11]; [18],100
same,"Plant response rating, Oat, Wild",wild oat (Avena fatua); [15],0
same,"Oat, Wild plant response rating (0 to 100 scale)",wild oat (Avena fatua); [16],0
same,"Plant response rating, Oat, Wild",wild oat (Avena fatua); [17],0
same,"Plant response rating, Oat, Wild",wild oat (Avena fatua); [18],0
CCn1c(-c2cc(F)cc(F)c2)ncc(C(=O)C2=C(O)CCCC2=O)c1=O [Compound 122],"Plant response rating, Flood, Ducksalad",[1],0
same,"Plant response rating, Ducksalad",[1]; [12],0
same,"Plant response rating, Flood, Barnyardgrass",[2],40
same,"Plant response rating, Barnyardgrass",[2]; [12],20
same,"Plant response rating, Flood, Rice",rice (Oryza sativa),15
same,"Plant response rating, Rice",rice (Oryza sativa); [12],0
same,"Plant response rating, Flood, Sedge, Umbrella",[3],45
same,"Plant response rating, Sedge, Umbrella",[3]; [12],20
same,"Plant response rating, Cocklebur",[4]; [21],0
same,Cocklebur plant response rating (0 to 100 scale),[4]; [16],45
same,"Plant response rating, Cocklebur",[4]; [22],20
same,"Plant response rating, Cocklebur",[4]; [17],85
same,"Plant response rating, Lambsquarters",[5]; [21],55
same,Lambsquarters plant response rating (0 to 100 scale),[5]; [16],65
same,"Plant response rating, Lambsquarters",[5]; [22],60
same,"Plant response rating, Lambsquarters",[5]; [17],90
same,"Plant response rating, Kochia",kochia (Kochia scoparia); [21],0
same,Kochia plant response rating (0 to 100 scale),kochia (Kochia scoparia); [16],0
same,"Plant response rating, Kochia",kochia (Kochia scoparia); [22],0
same,"Plant response rating, Kochia",kochia (Kochia scoparia); [17],45
same,"Plant response rating, Soybean","soybean (Glycine max); 16 g ai/ha, 0 to 100 scale",20
same,Soybean plant response rating (0 to 100 scale),soybean (Glycine max),75
same,"Plant response rating, Soybean",soybean (Glycine max); [23],45
same,"Plant response rating, Soybean",soybean (Glycine max); [19],80
same,"Plant response rating, Ragweed","[6]; 16 g ai/ha, 0 to 100 scale",55
same,Ragweed plant response rating (0 to 100 scale),[6],60
same,"Plant response rating, Ragweed",[6]; [23],60
same,"Plant response rating, Ragweed",[6]; [19],75
same,"Plant response rating, Foxtail, Giant",[7]; [21],65
same,"Foxtail, Giant plant response rating (0 to 100 scale)",[7]; [16],75
same,"Plant response rating, Foxtail, Giant",[7]; [22],70
same,"Plant response rating, Foxtail, Giant",[7]; [17],80
same,"Plant response rating, Foxtail, Green",[8]; [21],40
same,"Foxtail, Green plant response rating (0 to 100 scale)",[8]; [16],85
same,"Plant response rating, Foxtail, Green",[8]; [22],80
same,"Plant response rating, Foxtail, Green",[8]; [17],85
same,"Plant response rating, Johnsongrass",[9]; [21],20
same,Johnsongrass plant response rating (0 to 100 scale),[9]; [16],65
same,"Plant response rating, Johnsongrass",[9]; [22],45
same,"Plant response rating, Johnsongrass",[9]; [17],75
same,"Plant response rating, Pigweed",[10]; [21],75
same,Pigweed plant response rating (0 to 100 scale),[10]; [16],90
same,"Plant response rating, Pigweed",[10]; [22],85
same,"Plant response rating, Pigweed",[10]; [17],98
same,"Plant response rating, Corn",corn (Zea mays); [21],0
same,Corn plant response rating (0 to 100 scale),corn (Zea mays); [16],15
same,"Plant response rating, Corn",corn (Zea mays); [22],0
same,"Plant response rating, Corn",corn (Zea mays); [17],25
same,"Plant response rating, Bermudagrass",[11]; [21],65
same,Bermudagrass plant response rating (0 to 100 scale),[11]; [16],80
same,"Plant response rating, Bermudagrass",[11]; [22],75
same,"Plant response rating, Bermudagrass",[11]; [17],85
same,"Plant response rating, Oat, Wild",wild oat (Avena fatua); [21],5
same,"Oat, Wild plant response rating (0 to 100 scale)",wild oat (Avena fatua); [16],30
same,"Plant response rating, Oat, Wild",wild oat (Avena fatua); [22],5
same,"Plant response rating, Oat, Wild",wild oat (Avena fatua); [17],35
